According to patent publication US20190307754A1, “PDE9 INHIBITORS FOR TREATMENT OF PERIPHERAL DISEASES” (IMARA, INC., priority 2016, published 2019):
Where “and” joins values, the source holds several entries; their conditions need not be identical. Equal entries are not always repeated. Where two headings read alike, the source gives them in different places.

Legend:
HbSS-Townes mice = assay: Microvascular stasis and hematology in HbSS-Townes mice; assay type: in vivo
Experimental: The ability of Compound P3.1 to reduce vaso-occulsion was assessed in HbSS-Townes transgenic sickle mice after transient hypoxia and re-oxygenation. This study assessed the effects of repeated (10 days) oral dosing of Compound P3.1 and HU on microvascular stasis and other hematological markers of sickle cell disease, after transient hypoxia and re-oxygenation, in Townes transgenic sickle mice, a mouse model of sickle cell disease (Hba^tm1(HBA)Tow Hbb^tm2(HBG1,HBB*)Tow/Hbb^tm3(HBG1,HBB)Tow/J). HbSS-Townes mice were divided into groups of 3 mice and were then dosed orally via drinking water with Compound P3.1 at 10 mg/kg/day, Compound P3.1 at 30 mg/kg/day, HU (100 mg/kg/day), or a combination of Compound P3.1 and HU (at doses of 30 and 100 mg/kg/day, respectively) for 10 days. A final group received water containing 0.08% methylcellulose, the vehicle used to prepare the test items, and served as controls. On Day 7 of treatment, the mice were implanted with dorsal skin-fold chambers (DSFC), and on Day 10 of treatment, 20-23 flowing subcutaneous venules in the DSFC window were selected and mapped. After venule selection and mapping, mice were placed in a chamber and exposed to a hypoxic atmosphere (7% O2/93% N2) for 1 hour, after which they were returned to room air. All of the selected venules were re-examined after 1 and 4 hours of re-oxygenation in room air and the number of static (no flow) venules was counted and expressed as percent stasis. On completion of these measurements, blood was collected for clinical pathology with a focus on hematological measures associated with sickle cell disease.

C57Bl/6J mice = assay: Locomotor activity and contextual fear conditioning in C57Bl/6J mice; assay type: in vivo; conditions: 10 or 30 mg/kg/day, gavage, 5 days
Experimental: The exposure of both compounds was also evaluated in the plasma, brain, and eye. […] During the treatment period all animals were assessed for contextual fear conditioning and a subset of 7 animals per group was evaluated for locomotor activity. On Day 5, plasma, brain, and eye tissue were collected 30 minutes after dosing from 3 animals per treated group to measure concentrations of test item.

[1] = Pharmacokinetics of single oral and IV dose in Sprague Dawley rats; assay type: in vivo
Experimental: (§1) Blood samples were taken at 2 minutes (IV only), then 8, 15, 30 minutes, and 1, 2, 4, 8, and 24 hours after dosing and analyzed for key PK parameters. In the rats, brain samples were taken at 24 hours and analyzed for Compound P3.1. To evaluate the penetration of Compound P3.1 across the blood-brain barrier (BBB), 10 additional rats received IV Compound P3.1 3 mg/kg and plasma and brain concentrations of Compound P3.1 were determined from 2 animals at 15 minutes, 30 minutes and 1, 2, and 4 hours after dosing.

[2] = Brain and plasma concentrations after single IV dose in rat; assay type: in vivo; conditions: for Mean Plasma/Brain Ratio / Concentration Brain / Concentration Plasma / Plasma/Brain Ratio: 3 mg/kg IV; for Concentration Brain / Concentration Plasma / Plasma/Brain Ratio: individual animals, 3 mg/kg
Experimental: as §1

[3] = Plasma protein binding, humans; assay type: in vitro ADME; conditions: human, read-out: mean plasma fraction bound (converted)
CYP1A2 = assay: CYP induction in human hepatocytes, CYP1A2; assay type: in vitro ADME
[4] = Fourteen-day repeat-dose toxicity study in beagle dogs; assay type: in vivo, dog; conditions: beagle, in vivo, dog; for NOAEL at 14 days: both sexes, oral, males and females, 14-day; for Cmax / AUC(0-t): po; for AUC(0-t): read-out: AUC0-24
Experimental: (§2) In a GLP 14-day repeat-dose toxicity study in dogs, Compound P3.1 was orally administered at doses of 0, 10, 35, or 75 mg/kg/day. […] The no-observed-adverse-effect level (NOAEL) was considered to be 35 mg/kg/day in males and females.

dog = assay: as above; assay type: in vivo
Experimental: as §2

rat = assay: In vivo rat micronucleus study
Text: The genotoxicity evaluation of Compound P3.1 consisted of a bacterial reverse mutation assay, a chromosome aberration study, and a in vivo rat micronucleus study. Compound P3.1 was negative in all 3 assays.

CYP2B6 = assay: CYP induction in human hepatocytes, CYP2B6
[5] = Compound P3.1 30 mg/kg/day, HU 100 mg/kg/day, or both, 10 days
[6] = Sprague Dawley rats, 10 mg/kg oral
[7] = rat, blood, Sprague Dawley rats, 3 mg/kg IV
[8] = rat, blood, Sprague Dawley rats, 10 mg/kg oral
[9] = female, 10 mg, females, 10 mg, Day 1
[10] = female, 10 mg, females, 10 mg, Day 14
[11] = female, 35 mg, females, 35 mg, Day 1
[12] = female, 35 mg, females, 35 mg, Day 14
[13] = female, 75 mg/kg/day, females, 75 mg, Day 1
[14] = female, 75 mg/kg/day, females, 75 mg, Day 14
[15] = male, 10 mg, males, 10 mg, Day 1
[16] = male, 10 mg, males, 10 mg, Day 14
[17] = male, 35 mg, males, 35 mg, Day 1
[18] = male, 35 mg, males, 35 mg, Day 14
[19] = male, 75 mg/kg/day, males, 75 mg, Day 1
[20] = male, 75 mg/kg/day, males, 75 mg, Day 14

C[C@@H]1CN(Cc2ncccn2)C[C@H]1c1cn2c(C3CCOCC3)ncc2c(=O)[nH]1 (single isomer, unassigned) [Compound P3.1]
microvascular stasis (HbSS-Townes mice; 10 mg/kg/day, 10 days, 1-hour time point): reduced stasis statistically significantly
microvascular stasis (HbSS-Townes mice; 10 mg/kg/day, 10 days, 4 hours): not at 4 hours
microvascular stasis (HbSS-Townes mice; 30 mg/kg/day Compound P3.1 or 100 mg/kg HU, drinking water, 10 days, 1 and 4 hours post hypoxia): statistically significant reductions in stasis
total WBC numbers (HbSS-Townes mice; Compound P3.1 30 mg/kg/day or HU 100 mg/kg/day, 10 days): reduce total WBC numbers
vessel occlusion induced by transient hypoxia and re-oxygenation (HbSS-Townes mice; Compound P3.1 30 mg/kg/day, HU 100 mg/kg/day, or both): effectively reduced
number of HbF positive red cells (HbSS-Townes mice; [5]): increase the number of HbF positive red cells
proportion of sickled RBCs (HbSS-Townes mice; [5]): reduce the proportion of sickled RBCs
locomotor activity or memory (C57Bl/6J mice): no effect
Cl_obs ([1]; Sprague Dawley rats, 3 mg/kg IV): 16.2 mL/min/kg
Flast [1, 6]: 44.6%
Vss obs [1, 6]: 44.6 L/kg
bioavailability ([1]; Sprague Dawley, rat, plasma, po, 10 mg/kg, read-out: oral bioavailability Flast): 63.4%
AUC(0-t) [1, 7]: 3110 ng·h/mL
C0 [1, 7]: 4820 ng/mL
MRT [1, 7]: 1.44 h
half-life [1, 7]: 2.81 h
Vd ([1]; rat, blood, Sprague Dawley rats, 3 mg/kg IV, read-out: Vss obs): 1.65 L/kg
AUC(0-t) [1, 8]: 4620 ng·h/mL
C0 [1, 8]: 1110 ng/mL
Tmax [1, 8]: 1 h
half-life [1, 8]: 3.01 h
continuously exposed out to ([1]; rats, 10 mg/kg oral): 8 h
Mean Plasma/Brain Ratio ([2]; 0.25 h post dose): 20.2
Concentration Brain ([2]; 0.25 h post dose): 111 and 112
Concentration Plasma ([2]; 0.25 h post dose): 2400 and 2110
Plasma/Brain Ratio ([2]; 0.25 h post dose): 21.6 and 18.8
Mean Plasma/Brain Ratio ([2]; 0.5 h post dose): 25.1
Concentration Brain ([2]; 0.5 h post dose): 82.5 and 50.7
Concentration Plasma ([2]; 0.5 h post dose): 1790 and 1450
Plasma/Brain Ratio ([2]; 0.5 h post dose): 21.7 and 28.6
Mean Plasma/Brain Ratio ([2]; 1 h post dose): 23.1
Concentration Brain ([2]; 1 h post dose): 28.6 and 44.1
Concentration Plasma ([2]; 1 h post dose): 647 and 1040
Plasma/Brain Ratio ([2]; 1 h post dose): 22.6 and 23.6
Mean Plasma/Brain Ratio ([2]; 2 h post dose): 33.1
Concentration Brain ([2]; 2 h post dose): 8.88 and 5.34
Concentration Plasma ([2]; 2 h post dose): 245 and 206
Plasma/Brain Ratio ([2]; 2 h post dose): 27.6 and 38.6
Concentration Plasma ([2]; 4 h post dose): 59.8 and 107
brain concentration at 4 hours postdose ([2]; IV dosing, 4 hours postdose): no longer detectable in the brain
fraction unbound [3]: 0.686
induction of CYP1A2 (CYP1A2): no potential for induction
NOAEL at 14 days ([4]; read-out: no-observed-adverse-effect level (NOAEL)): 35 mg/kg/day
NOAEL at 14 days ([4]; read-out: no-observed-adverse-effect-level (NOAEL)): 35 mg/kg
Cmax [4, 9]: 1970 ng/mL
AUC(0-t) [4, 9]: 24800 ng·h/mL
Cmax [4, 10]: 3780 ng/mL
AUC(0-t) [4, 10]: 25400 ng·h/mL
Cmax [4, 11]: 5180 ng/mL
AUC(0-t) [4, 11]: 66700 ng·h/mL
Cmax [4, 12]: 10000 ng/mL
AUC(0-t) [4, 12]: 87900 ng·h/mL
Cmax [4, 13]: 13200 ng/mL
AUC(0-t) [4, 13]: 152000 ng·h/mL
Cmax [4, 14]: 22100 ng/mL
AUC(0-t) [4, 14]: 224000 ng·h/mL
Cmax [4, 15]: 2730 ng/mL
AUC(0-t) [4, 15]: 29700 ng·h/mL
Cmax [4, 16]: 3120 ng/mL
AUC(0-t) [4, 16]: 24100 ng·h/mL
Cmax [4, 17]: 11200 ng/mL
AUC(0-t) [4, 17]: 114000 ng·h/mL
Cmax [4, 18]: 13100 ng/mL
AUC(0-t) [4, 18]: 98600 ng·h/mL
Cmax [4, 19]: 11000 ng/mL
AUC(0-t) [4, 19]: 137000 ng·h/mL
Cmax [4, 20]: 18300 ng/mL
AUC(0-t) [4, 20]: 193000 ng·h/mL
deaths (dog; dog, 10, 35, or 75 mg/kg/day, 14 days): No deaths were observed at any dose
findings (dog; dog, 35 or 75 mg/kg/day, oral, 14 days): emesis, liquid/loose feces, reduced food intake, and losses in body weight in some individuals
mean exposures vs dose (dog; dog, Days 1 and 14): increased with dose in a broadly proportionate manner
genotoxicity, in vivo rat micronucleus study (rat): negative
induction of CYP2B6 (CYP2B6): no potential for induction
